Results on 24 compounds are retold here after US9394275B2, “Diamide compounds having muscarinic receptor antagonist and BETA2 adrenergic receptor agonist activity” (THERAVANCE RESPIRATORY COMPANY, LLC, priority 2009, dated 2016).

Where a name gives a salt, the structure may show the parent alone. Some results are limits rather than exact numbers.

The first test concerns MCh-induced bronchoconstriction in a rat. As to the kind of experiment: Einthoven assay: bronchoprotection against methacholine (MCh)-induced bronchoconstriction. In kind it is in vivo. The settings on record: Rattus norvegicus, inhaled or nasal, 24 h, read-out: Broncho. at 24 h. The procedure:
This assay measures the ability of a test compound to provide bronchoprotection against methacholine (MCh)-induced bronchoconstriction in a rat. Male Sprague-Dawley rats (Harlan, Indianapolis, Ind.), weighing between 200 g and 350 g, were used for all studies. Test compound or vehicle (sterile deionized water) were dosed by inhalation (IH) over a 10 min period in a pie shaped inhalation chamber (R+S Molds, San Carlos, Calif.) using 5 mL of dosing solution. […] Rats were dosed with 100 μg of test compound unless otherwise indicated. At predetermined time points, rats were anesthetized with an intraperitoneal (IP) injection of 120 mg/kg inactin (thiobutabarbital). A supplemental dose (40 mg/kg, IP) was administered if the animal responded to physical stimuli (e.g. toe pinch). The surgical site was shaved and a 1-2 cm midline incision of the ventral aspect of the neck was made. The jugular vein was isolated and cannulated with a saline-filled polyethylene catheter (PE-50) to allow IV infusion of MCh. Trachea was dissected free and cannulated with a 14G needle (#NE-014, Small Parts, Miami Lakes, Fla.). After placement of the tracheal cannula, each rat was ventilated using a respirator (Model 683, Harvard Apparatus, Inc., MA) set at a stroke volume of 1 mL/100 g body weight (but not exceeding 2.5 mL volume) and a rate of 90 strokes per minute. A T-connector was placed along the respirator expiratory tubing to allow for measurement of changes in ventilation pressure (VP) using a Biopac transducer that was connected to a Biopac […]) pre-amplifier. Body temperature was maintained at 37° C. using a heating pad. Changes in VP were recorded using the Acknowledge Data Collection Software (Santa Barbara, Calif.). Baseline values were collected for at least 2.5 min. Rats were then challenged with non-cumulative intravenous (IV) infusions of 40 and 80 μg/kg MCh. MCh was infused intravenously for 2.5 minutes from a syringe pump (sp210iw, World Precision Instruments, Inc., Sarasota, Fla.) at a rate of 2 mL/kg/min, with a 2 minute interval between the two doses of MCh. Changes in ventilation pressure (cm H2O) in treated animals are expressed as % inhibition of MCh response relative to control animals. Other bronchoconstrictors, such as histamine and acetylcholine, can be used in place of MCh in this assay. Additionally, guinea pigs can be used instead of rats. […] Inhibition greater than or equal to 30 percent at 24 h is indicative of a long duration of action.
On to `C[C@H](Cc1cccc(CCNC(=O)Cc2ccc(N(C)C(=O)CCN3CCC(OC(=O)Nc4ccccc4-c4ccccc4)CC3)cc2)c1)NC[C@H](O)c1ccc(O)c2[nH]c(=O)ccc12` [Compound I-86, Biphenyl-2-ylcarbamic Acid 1-{2-[(4-{[2-(3-{(R)-2-[(R)-2-Hydroxy-2-(8-hydroxy-2-oxo-1,2-dihydroquinolin-5-yl)ethylamino]propyl}phenyl)-ethylcarbamoyl]methyl}phenyl)methylcarbamoyl]ethyl}piperidin-4-yl Ester Ditrifluoroacetic Acid Salt], for which the inhibition in vivo at 0.1 mg is above 30%.

Staying with this test, now noted: inhaled or nasal; rat, 100 μg by inhalation, 24 h after administration; read-out: Broncho. at 24 h.
With `Cc1ccc(C(=O)Nc2ccc(CCNC[C@H](O)c3ccc(O)c4[nH]c(=O)ccc34)cc2)cc1N(C)C(=O)CCN1CCC(OC(=O)Nc2ccccc2-c2ccccc2)CC1` [Compound I-35], the inhibition in vivo at 0.1 mg is above 30%.

Still in this test, the particulars now being: rat, 100 μg by inhalation, 24 h after administration.
In the case of `Cc1cc(CNC[C@H](O)c2ccc(O)c3[nH]c(=O)ccc23)ccc1NC(=O)CCCN(C)C(=O)CCN1CCC(OC(=O)Nc2ccccc2-c2ccccc2)CC1` [Compound I-2], the “Broncho. at 24 h” value is on record as “No”.
For the compound `C[C@H](Cc1cccc(CC(=O)NCCCN(C)C(=O)CCN2CCC(OC(=O)Nc3ccccc3-c3ccccc3)CC2)c1)NC[C@H](O)c1ccc(O)c2[nH]c(=O)ccc12` [Compound I-12], the “Broncho. at 24 h” value is reported as “No”.
Same read-out and setting: the value for `CN(CCCCC(=O)Nc1ccc(CNC[C@H](O)c2ccc(O)c3[nH]c(=O)ccc23)cc1)C(=O)CCN1CCC(OC(=O)Nc2ccccc2-c2ccccc2)CC1` [Compound I-14, Biphenyl-2-ylcarbamic Acid 1-(2-{[4-(4-{[(R)-2-hydroxy-2-(8-hydroxy-2-oxo-1,2-dihydroquinolin-5-yl)ethylamino]methyl}phenylcarbamoyl)-butyl]methylcarbamoyl}ethyl)piperidin-4-yl Ester Ditrifluoroacetic Acid Salt] was “Yes (Bronchoprotective effect present at 24 h, e.g., ≧30% inhibition of the MCh response at 24 h in the rat Einthoven assay (100 μg))”; that for `Cc1cc(NC(=O)CCCCN(C)C(=O)CCN2CCC(OC(=O)Nc3ccccc3-c3ccccc3)CC2)c(C)cc1CNC[C@H](O)c1ccc(O)c2[nH]c(=O)ccc12` [Compound I-18, Biphenyl-2-ylcarbamic Acid 1-(2-{[4-(4-{[(R)-2-Hydroxy-2-(8-hydroxy-2-oxo-1,2-dihydroquinolin-5-yl)ethylamino]methyl}-2,5-dimethylphenylcarbamoyl)butyl]methylcarbamoyl}ethyl)piperidin-4-yl Ester Ditrifluoroacetic Acid Salt] was “Yes (Bronchoprotective effect present at 24 h, e.g., ≧30% inhibition of the MCh response at 24 h in the rat Einthoven assay (100 μg))”; that for `Cc1cc(CNC[C@H](O)c2ccc(O)c3[nH]c(=O)ccc23)ccc1NC(=O)c1cccc(N(C)C(=O)CCN2CCC(OC(=O)Nc3ccccc3-c3ccccc3)CC2)c1` [Compound I-27] was “No”.
`Cc1cc(CNC[C@H](O)c2ccc(O)c3[nH]c(=O)ccc23)ccc1NC(=O)c1ccc(C)c(N(C)C(=O)CCN2CCC(OC(=O)Nc3ccccc3-c3ccccc3)CC2)c1` [Compound I-28]: the “Broncho. at 24 h” value is “No”.
Consider `COc1cc(CNC[C@H](O)c2ccc(O)c3[nH]c(=O)ccc23)ccc1NC(=O)c1cccc(N(C)C(=O)CCN2CCC(OC(=O)Nc3ccccc3-c3ccccc3)CC2)c1` [Compound I-29], for which the “Broncho. at 24 h” value is recorded as “No”.
Still for that read-out and setting: as for `Cc1cc(NC(=O)c2cccc(N(C)C(=O)CCN3CCC(OC(=O)Nc4ccccc4-c4ccccc4)CC3)c2)c(C)cc1CNC[C@H](O)c1ccc(O)c2[nH]c(=O)ccc12` [Compound I-30], the entry is “No”; as for `CN(C(=O)CCN1CCC(OC(=O)Nc2ccccc2-c2ccccc2)CC1)c1cccc(C(=O)Nc2cccc(CCNC[C@H](O)c3ccc(O)c4[nH]c(=O)ccc34)c2)c1` [Compound I-32], “No”; as for `Cc1ccc(C(=O)Nc2cccc(CCNC[C@H](O)c3ccc(O)c4[nH]c(=O)ccc34)c2)cc1N(C)C(=O)CCN1CCC(OC(=O)Nc2ccccc2-c2ccccc2)CC1` [Compound I-33], “No”.
The same measure, in the same setting: the value for `Cc1ccc(C(=O)Nc2cccc(CC(C)NC[C@H](O)c3ccc(O)c4[nH]c(=O)ccc34)c2)cc1N(C)C(=O)CCN1CCC(OC(=O)Nc2ccccc2-c2ccccc2)CC1` (stereo partly drawn) [Compound I-37] was “No”.
With `C[C@H](Cc1cccc(NC(=O)c2cccc(N(C)C(=O)CCN3CCC(OC(=O)Nc4ccccc4-c4ccccc4)CC3)c2)c1)NC[C@H](O)c1ccc(O)c2[nH]c(=O)ccc12` [Compound I-38], the “Broncho. at 24 h” value is “No”.
On the same count and under the same terms, the value for `C[C@@H](Cc1cccc(NC(=O)c2cccc(N(C)C(=O)CCN3CCC(OC(=O)Nc4ccccc4-c4ccccc4)CC3)c2)c1)NC[C@H](O)c1ccc(O)c2[nH]c(=O)ccc12` [Compound I-39] was “No”; that for `C[C@H](Cc1ccc(NC(=O)c2cccc(N(C)C(=O)CCN3CCC(OC(=O)Nc4ccccc4-c4ccccc4)CC3)c2)cc1)NC[C@H](O)c1ccc(O)c2[nH]c(=O)ccc12` [Compound I-42] was “No”.
For the compound `CC(Cc1cccc(CNC(=O)c2cccc(N(C)C(=O)CCN3CCC(OC(=O)Nc4ccccc4-c4ccccc4)CC3)c2)c1)NC[C@H](O)c1ccc(O)c2[nH]c(=O)ccc12` (stereo partly drawn) [Compound I-44], the “Broncho. at 24 h” value is given as “No”.
`Cc1ccc(C(=O)NCc2cccc(CC(C)NC[C@H](O)c3ccc(O)c4[nH]c(=O)ccc34)c2)cc1N(C)C(=O)CCN1CCC(OC(=O)Nc2ccccc2-c2ccccc2)CC1` (stereo partly drawn) [Compound I-45]: the “Broncho. at 24 h” value was “No”.
The same measure, in the same setting: the value for `CC(Cc1cccc(CC(=O)Nc2cccc(N(C)C(=O)CCN3CCC(OC(=O)Nc4ccccc4-c4ccccc4)CC3)c2)c1)NC[C@H](O)c1ccc(O)c2[nH]c(=O)ccc12` (stereo partly drawn) [Compound I-52] was “No”; that for `C[C@@H](Cc1cccc(CCNC(=O)c2ccc(N(C)C(=O)CCN3CCC(OC(=O)Nc4ccccc4-c4ccccc4)CC3)cc2)c1)NC[C@H](O)c1ccc(O)c2[nH]c(=O)ccc12` [Compound I-56] was “No”.
As for `CN(C(=O)CCN1CCC(OC(=O)Nc2ccccc2-c2ccccc2)CC1)c1ccc(CC(=O)NCc2ccc(CCNC[C@H](O)c3ccc(O)c4[nH]c(=O)ccc34)cc2)cc1` [Compound I-64], the “Broncho. at 24 h” value was “No”.
Turning to `CC(Cc1ccc(CNC(=O)Cc2ccc(N(C)C(=O)CCN3CCC(OC(=O)Nc4ccccc4-c4ccccc4)CC3)cc2)cc1)NC[C@H](O)c1ccc(O)c2[nH]c(=O)ccc12` (stereo partly drawn) [Compound I-66], the “Broncho. at 24 h” value is “No”.
As for `C[C@@H](Cc1cccc(CC(=O)NCc2ccc(N(C)C(=O)CCN3CCC(OC(=O)Nc4ccccc4-c4ccccc4)CC3)cc2)c1)NC[C@H](O)c1ccc(O)c2[nH]c(=O)ccc12` [Compound I-79], the “Broncho. at 24 h” value is recorded as “No”.
`CC(Cc1ccc(CC(=O)NCc2ccc(N(C)C(=O)CCN3CCC(OC(=O)Nc4ccccc4-c4ccccc4)CC3)cc2)cc1)NC[C@H](O)c1ccc(O)c2[nH]c(=O)ccc12` (stereo partly drawn) [Compound I-80]: the “Broncho. at 24 h” value is reported as “No”.
